The subject of one test is SF58. The test can be described thus: Microtiter-format growth of SF58 with IPTG (assay validation, positive control). In kind it is cell-based, E. coli. The settings on record: 0.31 mM IPTG and above vs 0 to 0.16 mM IPTG, 30° C., after 18 hours. The method, then:
The first part of an assay transfer & validation procedure involves the reproduction of the results in microtiter format. […] All 48 replicate cultures of the same microtiter plate of FIG. 3 behaved similarly. […] In addition, after 18 h (6.4×10^4 s) the OD's of the induced cultures are well above controls.
A series of experiments were then performed to assess the signal as a function of the starting inoculum (i.e. the theoretical OD of the culture present in a microtiter well). The data (not shown) indicate that there is no significant difference in the SF58-IPTG growth curve if the inoculum is obtained by dilution of an overnight culture or of an actively growing 42° C.-culture. Consequently, the time for measuring the OD was set at 18 h, and the procedure used was to grow 5 μl of SF53 or SF58 in 30 ml glucose CAA medium (with […]) overnight at 42° C. until the OD600 was 1.2. The stock was diluted 1:100 in glucose CAA (without […]). 90 μl of this was dispensed into each well, with 10 μl of sample. […]
Following the procedure outlined above, a screening of 4240 microbial extracts was performed. Each 96-microtiter plate contained as controls four wells inoculated with SF53, four wells inoculated with SF58 and 8 wells inoculated with SF58 in the presence of 2.5 mM IPTG. […]

For test [1], the system named is strain SF58 (dnaA219, rnh::cam/pdnaA[1-86]-biotin). The test can be described thus: Growth of strain SF58 at 30° C. with IPTG-induced Domain I of DnaA (flask cultures, OD450). In kind it is cell-based, E. coli. The settings on record: for difference in OD450, induced vs uninduced culture: 10 parallel cultures. The method, then: The following experiments were performed to provide evidence that strain SF53 will survive when a drug has inactivated the DnaA protein. Such evidence can be obtained without a lead drug, by using production of the N-terminal domain (Domain I amino acids 1 to 86) of wild type DnaA. Domain I of DnaA is important for oligomerization and formation of proper initiation complexes. […] Strain SF53 was transformed with a plasmid carrying an IPTG-inducible gene encoding biotin-tagged Domain I (pBEX5BA-dnaA[1-86]-biotin), transformants checked, and the strain named SF58 (Table 1).
The growth of strain SF58 was tested at three different concentrations of IPTG. An overnight culture of strain SF58 grown at 42° C. was diluted 1:1000 in fresh ABB1 glucose CAA medium and split into five flasks. Culture nos. 1 to 4 were grown at 30° C. and culture no. 5 at 42° C. IPTG was added to culture no. 2, 3 and 4 at a concentration of 0.25, 0.5 and 1 mM, respectively, at the time of dilution. Growth curves were followed by measurement of OD450 for 8 hours. […] The OD450 was less than 0.03 at all time points.
The concentrations of Domain I present after 4 generations growth in the presence of the three different concentrations of IPTG, was assessed by Western blot. A ten-fold difference in OD450 between the culture grown without IPTG (culture no. 1) and the culture grown with 1 mM IPTG (culture no. 4) was obtained after about 10 hours. Thus, when performing a drug screen with the dnaA219rnh strain, a positive hit will be detected by a ten-fold difference in OD450 after about 10 hours in the presence of the drug.
To determine the robustness of the screen and also at which time, in a high throughput assay, it is optimal to measure the difference in OD450 we made the following measurements (FIG. 2). Essentially the same experiment as in FIG. 1 was performed, but OD450 was measured at only three time points, 20 h, 27 h and 48 h, in 10 different parallel cultures. A 20-40 fold difference was obtained after 20 h and after 27 h. After 48 h a background in the uninduced culture started to appear and the difference dropped to about 5 fold. Therefore, measurements of OD450 in high throughput screens should be performed after 10-30 hours of incubation.

Take `CC(C)S[C@@H]1O[C@H](CO)[C@H](O)[C@H](O)[C@H]1O` [IPTG]: the “OD405 of induced SF58 cultures compared with controls” value with SF58 is “significantly higher than controls”. Further, the “difference in OD450 between culture grown without IPTG and culture grown with IPTG” value in test [1] (1 mM IPTG, 30° C., after about 10 hours) is reported as “ten-fold”. Besides, the “growth rate of SF58 cultures grown at 30° C. with IPTG” value in test [1] (IPTG 0.25, 0.5 and 1 mM, 30° C., OD450 followed for 8 hours) was “increasing growth rates with increasing concentration of IPTG”. Further, the “difference in OD450, induced vs uninduced culture” value in test [1] (after 20 h, 30° C.) is given as 20-40 fold; in test [1] (after 27 h, 30° C.) it was 20-40 fold; in test [1] (after 48 h, 30° C.) it was “about 5 fold”.

B1: Domain I: N-terminal domain (amino acids 1 to 86) of wild type DnaA, biotin-tagged, expressed in SF58; poisons initiation complexes (protein, UniProt P03004 1-86, looked up, fragment)
chain: MSLSLWQQCLARLQDELPATEFSMWIRPLQAELSDNTLALYAPNRFVLDWVRDKYLNNINGLLTSFCGADAPQLRFEVGTKPVTQT
modifications: biotin tag
notes: N-terminal domain (amino acids 1 to 86) of wild type DnaA, biotin-tagged, expressed in SF58; poisons initiation complexes
As to B1, the “growth of the strain at 30° C.” value in test [1] (induction of Domain I by IPTG in SF58, 30° C.) is on record as “restored”.
